Values after ≈ are worked out from the molar mass of the structure shown.
Assays:
Mus musculus [1] = test: Antidiabetic activity in diet-induced obese mouse assessed as change in body weight at 10 mg/kg, po for 4 weeks measured after 1 week (reference value: 30.3+/-0.8 g); type: functional
Mus musculus [2] = test: Antidiabetic activity in diet-induced obese mouse assessed as NEFA level at 100 mg/kg, po for 4 weeks (reference value: 0.46 +/-0.02 mEq/dL); type: functional
Homo sapiens [3] = species on record: Homo sapiens; test: Selectivity ratio of EC50 for human FXR to EC50 for human PPARalpha
Bile acid receptor = biological target: T1, Bile acid receptor (Homo sapiens, UniProt Q96RI1); test: Agonist activity at human FXR LBD iexpressed in monkey CV-1 cells assessed as transactivation of luciferase reporter gene expression; type: functional, cell-based
T1 sequence (Q96RI1 whole entry): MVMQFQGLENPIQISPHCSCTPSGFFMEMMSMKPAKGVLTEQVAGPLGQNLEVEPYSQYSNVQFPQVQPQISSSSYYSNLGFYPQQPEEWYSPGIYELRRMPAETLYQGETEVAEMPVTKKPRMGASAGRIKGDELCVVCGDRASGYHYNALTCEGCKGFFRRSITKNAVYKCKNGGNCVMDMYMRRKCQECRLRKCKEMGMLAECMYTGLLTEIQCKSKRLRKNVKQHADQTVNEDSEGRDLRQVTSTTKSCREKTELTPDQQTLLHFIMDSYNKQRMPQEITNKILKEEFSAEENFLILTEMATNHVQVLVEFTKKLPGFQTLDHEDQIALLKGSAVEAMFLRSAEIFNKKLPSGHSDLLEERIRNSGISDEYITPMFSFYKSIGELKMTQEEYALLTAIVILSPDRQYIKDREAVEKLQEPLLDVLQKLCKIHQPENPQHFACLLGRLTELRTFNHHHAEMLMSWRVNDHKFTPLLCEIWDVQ

Cytochrome P450 2D6 = Cytochrome P450 2D6 (Homo sapiens, UniProt P10635); test: Inhibition of CYP2D6 in human liver microsome; type: microsomes
Rattus norvegicus = test: Dose normalized AUC in orally dosed rat; type: ADME, organism-based; settings: in vivo, po
Mus musculus [4] = test: Antidiabetic activity in diet-induced obese mouse assessed as change in body weight at 30 mg/kg, po for 4 weeks measured after 1 week (reference value: 29.6+/-0.9 g); type: functional
Homo sapiens [5] = species on record: Homo sapiens; test: Selectivity ratio of EC50 for human FXR to EC50 for human PPARgamma
Canis familiaris = test: Dose normalized AUC in orally dosed Beagle dog; type: ADME, organism-based, Canis lupus familiaris; settings: in vivo, po
Mus musculus [6] = test: Antidiabetic activity in diet-induced obese mouse assessed as total cholesterol level at 100 mg/kg, po for 4 weeks (reference value: 140.0 +/-2.8 mg/dL); type: functional
[7] = Solubility of compound in fasted state-simulated intestinal fluid at pH 6.5; type: physicochemical; settings: simulated gi fluid
Mus musculus [8] = test: Antidiabetic activity in diet-induced obese mouse assessed as serum insulin level at 100 mg/kg, po for 4 weeks (reference value: […]); type: functional
Mus musculus [9] = test: Antidiabetic activity in diet-induced obese mouse assessed as change in body weight at 100 mg/kg, po for 4 weeks measured after 3 weeks (reference value: 29.1+/-0.8 g); type: functional
[10] = Oral bioavailability in mouse; type: ADME, organism-based; settings: in vivo
Mus musculus [11] = test: Antidiabetic activity in diet-induced obese mouse assessed as triglyceride level at 30 mg/kg, po for 4 weeks (reference value: 54.4 +/-1.5 mg/dL); type: functional
Mus musculus [12] = test: Antidiabetic activity in diet-induced obese mouse assessed as NEFA level at 10 mg/kg, po for 4 weeks (reference value: 0.46 +/-0.02 mEq/dL); type: functional
Mus musculus [13] = test: Antidiabetic activity in diet-induced obese mouse assessed as serum glucose level at 30 mg/kg, po for 4 weeks (reference value: 316.5 +/-13.2 mg/dL); type: functional
Mus musculus [14] = test: Antidiabetic activity in diet-induced obese mouse assessed as glycerol level at 10 mg/kg, po for 4 weeks (reference value: 11.0 +/-1.3 mg/dL); type: functional
Mus musculus [15] = test: Antidiabetic activity in diet-induced obese mouse assessed as triglyceride level at 10 mg/kg, po for 4 weeks (reference value: 54.4 +/-1.5 mg/dL); type: functional
Mus musculus [16] = test: Antidiabetic activity in diet-induced obese mouse assessed as change in body weight at 30 mg/kg, po for 4 weeks measured after 3 weeks (reference value: 29.6+/-0.9 g); type: functional
Homo sapiens [17] = species on record: Homo sapiens; test: Selectivity ratio of EC50 for human FXR to EC50 for human RXRalpha
Mus musculus [18] = test: Antidiabetic activity in diet-induced obese mouse assessed as change in body weight at 10 mg/kg, po for 4 weeks measured after 3 weeks (reference value: 30.3+/-0.8 g); type: functional
Homo sapiens [19] = species on record: Homo sapiens; test: Selectivity ratio of EC50 for human FXR to EC50 for human LRH
Mus musculus [20] = test: Antidiabetic activity in diet-induced obese mouse assessed as serum insulin level at 30 mg/kg, po for 4 weeks (reference value: […]); type: functional
[21] = Permeability across MDCK cell membrane; type: ADME, cell-based, Canis lupus familiaris; settings: dog
Cytochrome P450 1A2 = biological target: T2, Cytochrome P450 1A2 (Homo sapiens, UniProt P05177); test: Inhibition of CYP1A2 in human liver microsome; type: microsomes
T2 sequence (P05177 whole entry): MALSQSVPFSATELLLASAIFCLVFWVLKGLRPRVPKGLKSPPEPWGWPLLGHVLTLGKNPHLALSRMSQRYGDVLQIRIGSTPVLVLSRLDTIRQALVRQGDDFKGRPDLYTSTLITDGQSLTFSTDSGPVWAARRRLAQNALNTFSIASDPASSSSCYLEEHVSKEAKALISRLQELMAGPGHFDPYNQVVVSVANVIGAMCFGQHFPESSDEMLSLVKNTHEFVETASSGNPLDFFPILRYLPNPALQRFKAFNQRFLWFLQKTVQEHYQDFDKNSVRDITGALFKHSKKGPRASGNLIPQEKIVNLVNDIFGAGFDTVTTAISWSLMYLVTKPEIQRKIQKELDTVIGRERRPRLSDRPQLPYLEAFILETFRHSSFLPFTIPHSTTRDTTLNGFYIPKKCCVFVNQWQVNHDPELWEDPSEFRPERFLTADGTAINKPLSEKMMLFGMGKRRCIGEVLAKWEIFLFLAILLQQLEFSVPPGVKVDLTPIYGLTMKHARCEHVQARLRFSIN

[22] = biological target: T3, Bile acid receptor (Homo sapiens) (UniProt Q96RI1); test: Agonist activity at human FXR LBD assessed as SRC1 peptide recruitment by FRET assay relative to GW 4064; type: functional
T3 sequence (whole entry): T1 sequence (Q96RI1 whole entry)

Chain of Cytochrome P450 2D6 (P10635 whole entry): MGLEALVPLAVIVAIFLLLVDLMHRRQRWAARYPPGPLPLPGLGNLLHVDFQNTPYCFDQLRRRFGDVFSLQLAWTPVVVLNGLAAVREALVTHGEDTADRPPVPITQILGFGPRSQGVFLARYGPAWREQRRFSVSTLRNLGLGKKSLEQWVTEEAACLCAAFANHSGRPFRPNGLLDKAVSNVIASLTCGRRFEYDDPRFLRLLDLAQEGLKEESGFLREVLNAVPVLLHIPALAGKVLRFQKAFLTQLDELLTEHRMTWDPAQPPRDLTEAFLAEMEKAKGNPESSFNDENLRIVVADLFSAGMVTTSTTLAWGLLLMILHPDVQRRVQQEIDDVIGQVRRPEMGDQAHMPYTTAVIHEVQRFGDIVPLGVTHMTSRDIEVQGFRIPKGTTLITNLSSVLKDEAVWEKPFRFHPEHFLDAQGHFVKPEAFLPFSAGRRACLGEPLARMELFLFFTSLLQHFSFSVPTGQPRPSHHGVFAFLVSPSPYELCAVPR

`CC(C)c1onc(-c2c(Cl)cccc2Cl)c1COc1ccc(-c2ccc3nc(C(=O)O)ccc3c2)cc1` showed an Activity (Mus musculus [1]) of 29.4 g, an Activity (Mus musculus [2]) of 0.65 mEq/dL and a Ratio EC50 (Homo sapiens [3]) of 100. For the same compound, the EC50 (Bile acid receptor) was 0.05 µM, the IC50 (Cytochrome P450 2D6) was over 33 µM and the AUC (Rattus norvegicus) was 130 ng·kg·h/mg/mL. For the same compound, the Activity (Mus musculus [4]) was 28.4 g, the Ratio EC50 (Homo sapiens [5]) was 100 and the AUC (Canis familiaris) was 1260 ng·kg·h/mg/mL. For the same compound, the Activity (Mus musculus [6]) was 87.9 mg/dL, the solubility [7] was 1 ng/mL (≈ 1.87 nM) and the Activity (Mus musculus [8]) was 0.34 ng/mL. For the same compound, the Activity (Mus musculus [9]) was 24.1 g, the bioavailability [10] was 42% and the Activity (Mus musculus [11]) was 51.1 mg/dL. The Activity (Mus musculus [12]) was 0.53 mEq/dL, the Activity (Mus musculus [13]) was 282.2 mg/dL and the Activity (Mus musculus [14]) was 10.8 mg/dL. The Activity (Mus musculus [15]) was 55.8 mg/dL, the Activity (Mus musculus [16]) was 27.5 g and the Ratio EC50 (Homo sapiens [17]) was 100. It also gave an Activity (Mus musculus [18]) of 29 g, a Ratio EC50 (Homo sapiens [19]) of 100 and an Activity (Mus musculus [20]) of 0.58 ng/mL. The Papp [21] was 18.3 ×10⁻⁶ cm/s, the IC50 (Cytochrome P450 1A2) was 21 µM and the Activity [22] was 105%.

From ChEMBL document CHEMBL1671792, “Conformationally constrained farnesoid X receptor (FXR) agonists: heteroaryl replacements of the naphthalene” (Bioorg Med Chem Lett, 2011)
